# Experimental data reported in US10857146B2, “Method for preventing or treating tumor diseases with a combination of tyrosine kinase inhibitor and CDK4/6 inhibitor” (Jiangsu Hengrui Medicine Co., Ltd., priority 2018, dated 2020).
# What was measured:
# [1] = test system: C019 (HER2 inhibitor-sensitive gastric cancer PDX model); experiment: Drug resistance test in HER2 inhibitor-sensitive gastric cancer PDX model (C019); type: in vivo; details: C019 mice, 40 mg/kg intragastrically once a day
# Text: (§1) A large-scale patient-derived tumor xenograft (PDX) model was constructed with a small amount of advanced gastric cancer tissue obtained by real-time endoscopic biopsy, thereby establishing a PDX tissue library. The PDX tissue was taken from the PDX tissue library, revived and inoculated subcutaneously into the mice. […] The tumor tissue was separated, and re-inoculated into new mice. […] C019 represents the mice one month after subcutaneous inoculation of the revived PDX tissue, S019 represents the mice two weeks after the administration of the compound of formula (I) at a single dose of 20 mg/kg, and R019 represents the mice three months after the administration of the compound of formula (I) in a single dose of 40 mg/kg.
# Protocol of the drug resistance test: the inhibitor group was administrated with the compound of formula (I) (intragastrically, once a day, in a single dose of 40 mg/kg), and the control group was administrated with an equal volume of normal saline. The tumor volume was measured every three days. The result of drug sensitivity of C019 and R019 models is shown in FIG. 1 (average value of five mice).
# [2] = test system: R019 (HER2 inhibitor-resistant gastric cancer PDX model); experiment: Drug resistance test and combination administration in HER2 inhibitor-resistant gastric cancer PDX model (R019); type: in vivo; details: R019 mice, 40 mg/kg intragastrically once a day
# [3] = test system: advanced gastric cancer PDX tissue; experiment: Construction of HER2 inhibitor-resistant PDX model by prolonged administration; type: in vivo, mice
# Text: as §1
structure (smiles),measurement,setting,value
CCOc1cc2ncc(C#N)c(Nc3ccc(OCc4ccccn4)c(Cl)c3)c2cc1NC(=O)/C=C/[C@H]1CCCN1C [compound of formula (I)],drug sensitivity of the model,[1],highly sensitive
same,tumor inhibition rate,[1]; average value of five mice,> 100%
same,drug sensitivity of the model,[2],high resistance
same,tumor response after prolonged administration,[3]; 20 mg/kg intragastrically once a day for three months,resistance
same,tumor response after prolonged administration,"[3]; re-inoculated tumor, 40 mg/kg intragastrically once a day for three months",complete resistance
